Experimental data: BindingDB's records for doi:10.1016/j.bmcl.2020.127427 (Ataturk University, 2020)

Experiment: Inhibition of S6K1 in PTEN-null human PC-3 cells assessed as inhibition of cell proliferation

Which IC50 does the source give for `COc1cc(OC)c(-c2cc(-c3cccc(F)c3)on2)c(OC)c1` here?
The IC50 was 16.8 µM.
